Data taken from patent US7507729B2, “Substituted imidazo-[1,5-a][1,2,4]triazolo[1,5-d][1,4] benzodiazepine derivatives” (priority 2005, dated 2009).
Structures can show the parent of a compound that is named as a salt. Where two headings read alike, the source gives them in different places.

How the values were obtained:
[1] = molecular target: T1, GABA A receptor α5β3γ2 (hα5) (Homo sapiens, UniProt P18507+P31644); assay: [3H]flumazenil competition binding, membranes of HEK293 cells expressing human GABA A α5β3γ2
T1 construct: expressed in transfected cells; host or cells: HEK293, transiently transfected; membranes
Protocol: (§1) The affinity of compounds at GABA A receptor subtypes was measured by competition for [^3H]flumazenil (85 Ci/mmol; Roche) binding to HEK293 cells expressing rat (stably transfected) or human (transiently transfected) receptors of composition α1β3γ2, α2β3γ2, α3β3γ2 and α5β3γ2.
(§2) Cell pellets were suspended in Krebs-tris buffer (4.8 mM KCl, 1.2 mM CaCl2, 1.2 mM MgCl2, 120 mM NaCl, 15 mM Tris; pH 7.5; binding assay buffer), homogenized by polytron for ca. 20 sec on ice and centrifuged for 60 min at 4° C. (50000 g; Sorvall, rotor: SM24=20000 rpm). The cell pellets were resuspended in Krebs-tris buffer and homogenized by polytron for ca. 15 sec on ice. Protein was measured (Bradford method, Bio-Rad) and aliquots of 1 mL were prepared and stored at −80° C.
(§3) Radioligand binding assays were carried out in a volume of 200 μL (96-well plates) which contained 100 μL of cell membranes, [^3H]flumazenil at a concentration of 1 nM for α1, α2, α3 subunits and 0.5 nM for α5 subunits and the test compound in the range of 10^−10-3×10^−6 M.
(§4) Nonspecific binding was defined by 10^−5 M diazepam and typically represented less than 5% of the total binding. Assays were incubated to equilibrium for 1 hour at 4° C. and harvested onto GF/C uni-filters (Packard) by filtration using a Packard harvester and washing with ice-cold wash buffer (50 mM Tris; pH 7.5). After drying, filter-retained radioactivity was detected by liquid scintillation counting. Ki values were calculated using Excel-Fit (Microsoft) and are the means of two determinations.

[2] = molecular target: T2, GABA A receptor α1β3γ2 (hα1) (Homo sapiens, UniProt P14867+P18507); assay: [3H]flumazenil competition binding, membranes of HEK293 cells expressing human GABA A α1β3γ2
T2 construct: expressed in transfected cells; host or cells: HEK293, transiently transfected; membranes
Protocol: as §1, §2, §3, §4

[3] = [3H]flumazenil 0.5 nM, 1 hour at 4° C., means of two determinations, read-out: Ki[nM] hα5
[4] = [3H]flumazenil 1 nM, 1 hour at 4° C., means of two determinations, read-out: Ki[nM] hα1

Compound | Ki [1, 3] | Ki [2] | Ki [1] | Ki [2, 4]
O=C1SCCN1Cc1nc2n(n1)Cc1c(Cl)ncn1-c1ccc(Br)cc1-2 [Example 312, 3-Bromo-10-chloro-6-(2-oxo-thiazolidin-3-ylmethyl)-9H-imidazo[1,5-a][1,2,4]triazolo[1,5-d][1,4]benzodiazepine] | 0.5 nM | 60 nM | – | –
CN1CCN(Cc2nc3n(n2)Cc2c(Cl)ncn2-c2ccc(Br)cc2-3)C1=O [Example 300, 3-Bromo-10-chloro-6-(3-methyl-2-oxo-imidazolidin-1-ylmethyl)-9H-imidazo[1,5-a][1,2,4]triazolo[1,5-d][1,4]benzodiazepine] | 0.7 nM | 62.1 nM | – | –
Cc1ncn2c1Cn1nc(Cn3ncccc3=O)nc1-c1cc(Br)ccc1-2 [Example 330, 3-Bromo-10-methyl-6-(6-oxo-6H-pyridazin-1-ylmethyl)-9H-imidazo[1,5-a][1,2,4]triazolo[1,5-d][1,4]benzodiazepine hydrochloride (1:1)] | – | – | 0.7 nM | 134 nM
Clc1ccc2c(c1)-c1nc(Cn3nnc4ccccc43)nn1Cc1c(Cl)ncn1-2 [Example 22, 6-Benzotriazol-1-ylmethyl-3,10-dichloro-9H-imidazo[1,5-a][1,2,4]triazolo[1,5-d][1,4]benzodiazepine] | 0.4 nM | 53 nM | – | –
3-Bromo-10-chloro-6-(hydroxy-phenyl-ethyl)-9H-imidazo[1,5-a][1,2,4]triazolo[1,5-d][1,4]benzodiazepine [Example 54] | 0.9 nM | – | – | 34.6 nM
O=C1NCCN1Cc1nc2n(n1)Cc1c(Cl)ncn1-c1ccc(Br)cc1-2 [Example 301, 3-Bromo-10-chloro-6-(2-oxo-imidazolidin-1-ylmethyl)-9H-imidazo[1,5-a][1,2,4]triazolo[1,5-d][1,4]benzodiazepine] | 0.7 nM | – | – | 50.5 nM
Clc1ccc2c(c1)-c1nc(Cn3cncn3)nn1Cc1c(Cl)ncn1-2 [Example 12, 3,10-Dichloro-6-[1,2,4]triazol-1-ylmethyl-9H-imidazo[1,5-a][1,2,4]triazolo[1,5-d][1,4]benzodiazepine] | 0.8 nM | 51.8 nM | – | –
Cc1ncn2c1Cn1nc(Cc3ccncc3)nc1-c1cc(Br)ccc1-2 [Example 122, 3-Bromo-10-methyl-6-(pyridine-4-ylmethyl)-9H-imidazo[1,5-a][1,2,4]triazolo[1,5-d][1,4]benzodiazepine] | – | – | 0.5 nM | 150 nM
Cc1ccc2c(c1)-c1nc(Cc3cc(C)no3)nn1Cc1c(C)ncn1-2 [Example 236, 3,10-Dimethyl-6-(3-methyl-isoxazol-5-ylmethyl)-9H-imidazo[1,5-a][1,2,4]triazolo[1,5-d][1,4]benzodiazepine] | – | – | 0.8 nM | 496 nM
Ethyl 3-bromo-6-methoxymethyl-9H-imidazo[1,5-a][1,2,4]triazolo[1,5-d][1,4]benzodiazepine-10-carboxylate [Example 38] | 0.4 nM | – | – | 6.9 nM
Cc1ncn2c1Cn1nc(Cn3ccccc3=O)nc1-c1ccccc1-2 [Example 378, 10-Methyl-6-(2-oxo-2H-pyridin-1-ylmethyl)-9H-imidazo[1,5-a][1,2,4]triazolo[1,5-d][1,4]benzodiazepine] | 0.6 nM | 42.1 nM | – | –
O=C(Cc1nc2n(n1)Cc1c(Cl)ncn1-c1ccc(Br)cc1-2)NCc1cccnc1 [Example 63, 3-Bromo-10-chloro-6-{[(Pyridin-3-ylmethyl)-carbamoyl]-methyl}-9H-imidazo[1,5-a][1,2,4]triazolo[1,5-d][1,4]benzodiazepine] | 0.8 nM | 64.7 nM | – | –
Cc1ncn2c1Cn1nc(Cn3ccnc3)nc1-c1ccccc1-2 [Example 275, 6-(Imidazol-1-ylmethyl)-10-methyl-9H-imidazo[1,5-a][1,2,4]triazolo[1,5-d][1,4]benzodiazepine hydrochloride (1:1)] | 0.6 nM | 33.6 nM | – | –
Cc1cc(Cc2nc3n(n2)Cc2c(C)ncn2-c2ccc(Br)cc2-3)on1 [Example 123, 3-Bromo-10-methyl-6-(3-methyl-isoxazol-5-ylmethyl)-9H-imidazo[1,5-a][1,2,4]triazolo[1,5-d][1,4]benzodiazepine] | – | – | 0.6 nM | 188 nM
O=C1CCCN1Cc1nc2n(n1)Cc1c(Cl)ncn1-c1ccc(Br)cc1-2 [Example 49, 3-Bromo-10-chloro-6-(2-oxo-pyrrolidin-1-ylmethyl)-9H-imidazo[1,5-a][1,2,4]triazolo[1,5-d][1,4]benzodiazepine] | 0.9 nM | 114 nM | – | –
Cc1ncn2c1Cn1nc(Cc3cccnc3)nc1-c1ccccc1-2 [Example 265, 10-Methyl-6-(pyridine-3-ylmethyl)-9H-imidazo[1,5-a][1,2,4]triazolo[1,5-d][1,4]benzodiazepine] | 0.62 nM | 39.3 nM | – | –
O=C1CSC(=O)N1Cc1nc2n(n1)Cc1c(Cl)ncn1-c1ccc(Br)cc1-2 [Example 309, 3-Bromo-10-chloro-6-(2,4-dioxo-thiazolidin-3-ylmethyl)-9H-imidazo[1,5-a][1,2,4]triazolo[1,5-d][1,4]benzodiazepine] | 0.5 nM | 55.2 nM | – | –
Clc1ccc2c(c1)-c1nc(Cn3cccn3)nn1Cc1c(Cl)ncn1-2 [Example 13, 3,10-Dichloro-6-pyrazol-1-ylmethyl-9H-imidazo[1,5-a][1,2,4]triazolo[1,5-d][1,4]benzodiazepine] | 0.9 nM | 30.7 nM | – | –
Clc1ccc2c(c1)-c1nc(Cn3ccnn3)nn1Cc1c(Cl)ncn1-2 [Example 11, 3,10-Dichloro-6-[1,2,3]triazol-1-ylmethyl-9H-imidazo[1,5-a][1,2,4]triazolo[1,5-d][1,4]benzodiazepine] | 0.5 nM | 48.3 nM | – | –
Cc1ncn2c1Cn1nc(Cc3ccccn3)nc1-c1ccccc1-2 [Example 261, 10-Methyl-6-(pyridine-2-ylmethyl)-9H-imidazo[1,5-a][1,2,4]triazolo[1,5-d][1,4]benzodiazepine] | 0.7 nM | 26.6 nM | – | –
CCOC(=O)c1ncn2c1Cn1nc(COC)nc1-c1cc(Cl)ccc1-2 [Example 4, Ethyl 3-chloro-6-methoxymethyl-9H-imidazo[1,5-a][1,2,4]triazolo[1,5-d][1,4]benzodiazepine-10-carboxylate] | 0.3 nM | 8.5 nM | – | –
O=C1CCC(=O)N1Cc1nc2n(n1)Cc1c(Cl)ncn1-c1ccc(Br)cc1-2 [Example 310, 3-Bromo-10-chloro-6-(2,5-dioxo-pyrrolidin-1-ylmethyl)-9H-imidazo[1,5-a][1,2,4]triazolo[1,5-d][1,4]benzodiazepine] | 0.7 nM | – | – | 69.7 nM
O=C(Cc1nc2n(n1)Cc1c(Cl)ncn1-c1ccc(Br)cc1-2)NC1CCOCC1 [Example 62, 3-Bromo-10-chloro-6-[(tetrahydro-pyran-4-ylcarbamoyl)-methyl]-9H-imidazo[1,5-a][1,2,4]triazolo[1,5-d][1,4]benzodiazepine] | 0.7 nM | 88.4 nM | – | –
Cc1noc(Cc2nc3n(n2)Cc2c(Cl)ncn2-c2ccc(Br)cc2-3)n1 [Example 72, 3-Bromo-10-chloro-6-(3-methyl-[1,2,4]oxadiazol-5-ylmethyl)-9H-imidazo[1,5-a][1,2,4]triazolo[1,5-d][1,4]benzodiazepine] | 0.7 nM | 98.2 nM | – | –
Clc1ccc2c(c1)-c1nc(Cn3nccn3)nn1Cc1c(Cl)ncn1-2 [Example 10, 3,10-Dichloro-6-[1,2,3]triazol-2-ylmethyl-9H-imidazo[1,5-a][1,2,4]triazolo[1,5-d][1,4]benzodiazepine] | 0.4 nM | 63.3 nM | – | –
O=C(Cc1nc2n(n1)Cc1c(Cl)ncn1-c1ccc(Br)cc1-2)NC1CCCC1 [Example 61, 3-Bromo-10-chloro-6-cyclopentylcarbamoylmethyl-9H-imidazo[1,5-a][1,2,4]triazolo[1,5-d][1,4]benzodiazepine] | 0.6 nM | 91.7 nM | – | –
Cc1ccc(Cc2nc3n(n2)Cc2c(C)ncn2-c2ccc(Cl)cc2-3)cn1 [Example 185, 3-Chloro-10-methyl-6-(6-methyl-pyridin-3-ylmethyl)-9H-imidazo[1,5-a][1,2,4]triazolo[1,5-d][1,4]benzodiazepine] | – | – | 0.9 nM | 248 nM
O=C1OCCN1Cc1nc2n(n1)Cc1c(Cl)ncn1-c1ccc(Cl)cc1-2 [Example 316, 3,10-Dichloro-6-(2-oxo-oxazolidin-3-ylmethyl)-9H-imidazo[1,5-a][1,2,4]triazolo[1,5-d][1,4]benzodiazepine] | – | – | 0.9 nM | 116 nM
Cc1ncn2c1Cn1nc(Cc3ccncc3)nc1-c1ccccc1-2 [Example 267, 10-Methyl-6-(pyridine-4-ylmethyl)-9H-imidazo[1,5-a][1,2,4]triazolo[1,5-d][1,4]benzodiazepine] | 0.25 nM | 20.4 nM | – | –
Cc1noc(Cc2nc3n(n2)Cc2c(C)ncn2-c2ccc(Br)cc2-3)n1 [Example 349, 3-Bromo-10-methyl-6-(3-methyl-[1,2,4]oxadiazol-5-ylmethyl)-9H-imidazo[1,5-a][1,2,4]triazolo[1,5-d][1,4]benzodiazepine] | – | – | 0.9 nM | 469 nM
